In patent US11008572B2, “Methods and compositions for modulating splicing” (SKYHAWK THERAPEUTICS, INC., priority 2017, dated 2021):
Where two headings read alike, the source gives them in different places.

Tests used:
[1] = test system: FOXM1^A2 mRNA and FOXM1^BC mRNA; experiment: Splicing assay (FOXM1), qPCR of isoform mRNAs; format: cell-based; settings: for EC50: read-out: Splice EC50 (nM) FoxM1 A mRNA increase (exon excluded)
Procedure, shortened: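 Cells (20,000/well) treated at plating with compound, 8-point 4-fold series from 10 μM, 0.2% DMSO, 24 h at 37° C. Isoform mRNAs quantified by RT-qPCR against plasmid standards, normalized to PPIA and DMSO control; isoform ratio computed per concentration.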

[2] = test system: A-673 cells; experiment: Cell viability, crystal violet staining; format: cell-based; settings: Homo sapiens
Procedure, shortened: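 Readout is absorbance at 570 nm of crystal violet, taken up in 0.1 M sodium citrate in 50% ethanol after staining with 0.5% dye in 25% methanol. Plates held 5×10^3 cells per well, and compounds were added one day after seeding for 72 hours. Data are relative to vehicle, mean±SE.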

[3] = 24 h, MDA-MB-231-luc cells, 24 hours, table does not say EC50 or IC50, read-out: FOXM1
[4] = 24 h, U-118 cells, 24 hours, table does not say EC50 or IC50, read-out: FOXM1
[5] = FoxM1 BC mRNA decrease (exon included), read-out: Splice IC50 (nM) FoxM1 BC mRNA decrease (exon included)
[6] = Homo sapiens, A673, 24 h, A-673 cells, 24 hours, table does not say EC50 or IC50, read-out: FOXM1
[7] = Homo sapiens, A-375, 24 h, A-375 cells, 24 hours, table does not say EC50 or IC50, read-out: FOXM1
[8] = Homo sapiens, BXPC-3, 24 h, BxPC-3 cells, 24 hours, table does not say EC50 or IC50, read-out: FOXM1
[9] = Homo sapiens, Z-138, 24 h, Z-138 cells, 24 hours, table does not say EC50 or IC50, read-out: FOXM1
[10] = A673, cell viability, read-out: A-673 IC50 (nM) Cell viability
[11] = A673, read-out: A-673 cell viability (IC50)

`CN(c1ccc(-c2ccc(-c3cn[nH]c3)cc2O)nn1)[C@@H]1C[C@H]2CC[C@@H](C1)N2` [compound 138, 2-(6-(((1R,3s,5S)-8-azabicyclo[3.2.1]octan-3-yl)(methyl)amino)pyridazin-3-yl)-5-(1H-pyrazol-4-yl)phenol] was tested, and the IC50 [1, 3] was 11 to 100 nM, the IC50 [1, 4] was 11 to 100 nM and the IC50 [1, 5] was 10 to 100 nM. It also gave an IC50 [1, 6] of 11 to 100 nM, an IC50 [1, 7] of 1 to 10 nM and an IC50 [1, 8] of 101 to 200 nM. The IC50 ([1]; Homo sapiens, DU-145, 24 h, DU-145 cells, 24 hours, table does not say EC50 or IC50, read-out: FOXM1) was 11 to 100 nM, the IC50 ([1]; Homo sapiens, Daoy, 24 h, Daoy cells, 24 hours, table does not say EC50 or IC50, read-out: FOXM1) was 11 to 100 nM and the IC50 ([1]; Homo sapiens, G-401, 24 h, G-401 cells, 24 hours, table does not say EC50 or IC50, read-out: FOXM1) was 101 to 200 nM. For the same compound, the IC50 ([1]; Homo sapiens, SH-SY5Y, 24 h, SH-SY5Y cells, 24 hours, table does not say EC50 or IC50, read-out: FOXM1) was 11 to 100 nM, the IC50 ([1]; Homo sapiens, TT, 24 h, T.T cells, 24 hours, table does not say EC50 or IC50, read-out: FOXM1) was 11 to 100 nM and the IC50 [1, 9] was 11 to 100 nM. It also gave an EC50 [1] of 10 to 100 nM and an IC50 [2, 10] of 10 to 100 nM.

In the case of `CN(c1ccc(-c2ccc(-c3cn[nH]c3)cc2O)nn1)[C@H]1C[C@]2(C)CC[C@](C)(C1)N2` [compound 151, 2-(6-(((1R,3s,5S)-1,5-dimethyl-8-azabicyclo[3.2.1]octan-3-yl)(methyl)amino)pyridazin-3-yl)-5-(1H-pyrazol-4-yl)phenol], the IC50 [1, 5] is reported as less than 10 nM, the IC50 [1, 6] is reported as 1 to 10 nM and the IC50 [1, 7] is reported as 1 to 10 nM. The IC50 ([1]; Homo sapiens, Hep3B, 24 h, Hep-3B cells, 24 hours, table does not say EC50 or IC50, read-out: FOXM1) was 101 to 200 nM, the IC50 ([1]; Homo sapiens, K562, 24 h, K-562 cells, 24 hours, table does not say EC50 or IC50, read-out: FOXM1) was 11 to 100 nM and the IC50 ([1]; Homo sapiens, MDA-MB-468, 24 h, MDA-MB-468 cells, 24 hours, table does not say EC50 or IC50, read-out: FOXM1) was 11 to 100 nM. The IC50 ([1]; Homo sapiens, NCI-H358, 24 h, NCI-H358 cells, 24 hours, table does not say EC50 or IC50, read-out: FOXM1) was 1 to 10 nM, the IC50 ([1]; Homo sapiens, PANC-1, 24 h, PANC-1 cells, 24 hours, table does not say EC50 or IC50, read-out: FOXM1) was 101 to 200 nM and the IC50 ([1]; Homo sapiens, PC-3, 24 h, PC-3 cells, 24 hours, table does not say EC50 or IC50, read-out: FOXM1) was 11 to 100 nM. For the same compound, the IC50 ([1]; Homo sapiens, U-87 MG, 24 h, U-87MG cells, 24 hours, table does not say EC50 or IC50, read-out: FOXM1) was 11 to 100 nM, the EC50 [1] was less than 10 nM and the IC50 [2, 10] was less than 10 nM. For the same compound, the IC50 [2, 11] was no more than 5 nM.

Work on `CN(c1ccc(-c2ccc(-c3cn[nH]c3)cc2O)nn1)[C@@H]1C[C@H]2CCC[C@@H](C1)N2` [compound 160, 2-(6-(((1R,3s,5S)-9-azabicyclo[3.3.1]nonan-3-yl)(methyl)amino)pyridazin-3-yl)-5-(1H-pyrazol-4-yl)phenol] yielded an IC50 [1, 3] of 11 to 100 nM, an IC50 [1, 4] of 1 to 10 nM and an IC50 [1, 5] of less than 10 nM. For the same compound, the IC50 [1, 6] was 1 to 10 nM, the IC50 [1, 7] was less than 1 nM and the IC50 [1, 8] was 11 to 100 nM. The IC50 [1, 9] was 1 to 10 nM, the EC50 [1] was less than 10 nM and the IC50 [2, 10] was less than 10 nM. The IC50 [2, 11] was no more than 5 nM.
